Converted amounts (≈) assume the structure as drawn. Read-outs that look alike come from different tables or passages of the source.
Tests used:
E. coli ATCC 25922 = experiment: MIC, broth microdilution (CLSI); format: cell-based, Escherichia coli; settings: for MIC: Escherichia coli; for MIC ratio 0/1: 0 and 1 µg/mL supplemental iron (Table S2); for MIC ratio 1/0: 1 versus 0 µg/mL supplemental iron (peer review file table)
Protocol: (§1) All bacterial strains (see description and sources Table S1) were stored at −80 °C, and grown on tryptone soya agar (TSA) at 35 °C. The iron-deprived (ID)-MHBCA (cation-adjusted Muller-Hinton Broth, Becton Dickinson, Mississauga, ON, Canada) medium was prepared as reported by refs. [21],[50]. Briefly, MHBCA was treated with 10% Chelex® 50-100 mesh (Sigma) and stirred for 6 h at room temperature. The resin was removed by filtration. Divalent Ca^2+ (CaCl2), Mg^2+ (MgCl2), and Zn^2+(ZnSO4), were then added in the iron-depleted medium at 22, 12, and 1 μg/ml respectively. Finally, the pH was adjusted to 7.3, and the medium was sterilized with a 0.2-μm filter. Regular MHBCA (i.e., not treated with Chelex®) was used to compare the inhibitory activity of conjugates in iron-sufficient conditions.
(§2) Minimal inhibitory concentrations (MICs) were performed using a broth microdilution technique according to the Clinical and Laboratory Standards Institute (CLSI) guidelines. MICs were determined in MHBCA and in ID-MHBCA. To check the impact of β-lactamases, MICs in the presence of a β-lactamase inhibitor were also determined. The inhibitor was homogenized at 2X the final concentration and added to the bacterial inoculum just before distributing cells into the wells containing the drug dilutions. The final concentration of each inhibitor was 4 μg/mL for clavulanic acid (tested against K. pneumoniae) and 200 μg/mL for 3-aminophenylboronic acid (tested against P. aeruginosa and A. baumannii).

PBP2 [1] = target: PBP2 (Klebsiella pneumoniae, UniProt A6T696); experiment: Membrane PBP binding assay, competition with Bocillin FL; set-up: species or system K. pneumoniae ATCC 13883
Protocol: (§3) Membrane extracts containing PBPs were obtained as described above. Briefly, all species were grown in 1 L of TSB until the OD600 reached 0.9. The washed pellet was incubated with lysozyme (400 μg/mL), DNase (10 μg/mL) RNase(10 μg/mL) and anti-protease cocktail (200 mg/20 mL). Lysis was done with a French press (20,000 psi) and membrane protein were pelleted by ultracentrifugation steps (100,000 × g). The pellet was suspended in a minimal volume (300–500 μL) of KP 0.05 M buffer at pH 7. The protein concentration in the membrane preparations was determined with the Micro BCA TM Protein Assay Kit (Thermo Fisher Scientific, Rockford, IL) using bovine serum albumin as a standard.
(§4) The PBP binding assay was done as described previously[36],[56],[57]. For each antibiotic concentration tested, a quantity of 25 to 40 μg of membrane preparation was used as the source of PBPs, depending on the species. For the purified PaPBP3, 150 ng was used in the assay. First, increasing concentrations of the test antibiotic was added to the membrane or purified PaPBP3 preparations and incubated for 10 min at 30 °C. The reporter molecule Bocillin FL was then added at 12.5 μM for the membrane PBPs preparations and at 500 nM for the pure PaPBP3 samples for an additional 20 min at 30 °C. All reactions were stopped with the addition of the Laemmli-loading buffer (Bio-Rad) containing fresh β-mercaptoethanol (Sigma). All reactions were then heated at 100°C for 3 min before migration on SDS-polyacrylamide discontinuous gel system (7.5% stacking and 10% separating). Control samples without Bocillin FL were also included to highlight autofluorescent proteins that are not PBPs.
(§5) To be able to visualize labeled PBPs after electrophoresis, gels were rinsed in water and fixed in a solution of 50% methanol and 7% acetic acid for 30 min. The fluorescent images of gels were obtained with the Typhoon FLA 9500 instrument (GE-Healthcare Bio-Sciences Inc., Baie-d’Urfé, QC, CA) using a 473 nm excitation wavelength. To obtain quantifiable data, the software Quantity One 1D analysis was used (version 4.6.6; Bio-Rad Laboratories, Richmond, CA). The volume (intensity × constant area) of each PBP was measured. […] All IC50 data were obtained from at least two independent PBP binding assays using two different sets of compound concentrations using a linear regression. The PBP profiles were confirmed, and the PBP numbering were determined using published data and individual molecular weights. […] For example, amdinocillin (Sigma) was used for PBP2 identification. […] The IC50 for PBP 2 of P. aeruginosa was measured by including the SDS-PAGE comigrating autofluorescent protein in the background, as done previously.

E. coli ΔacrAB = experiment: MIC, efflux pump mutant; format: cell-based, Escherichia coli; settings: Escherichia coli
Protocol: as §2

E. coli Δfiu = experiment: MIC, Keio mutant; format: cell-based, Escherichia coli
Protocol: as §1, §2

E. coli ΔcirA = experiment: MIC, Keio mutant; format: cell-based, Escherichia coli; settings: Escherichia coli
Protocol: as §1, §2

E. coli ΔfhuA = experiment: MIC, Keio mutant; format: cell-based, Escherichia coli
Protocol: as §1, §2

PBP3 = target: T1, PBP3 (Escherichia coli, UniProt P0AD68); experiment: Membrane PBP binding assay, competition with Bocillin FL; set-up: species or system E. coli MC4100
T1 construct: using bacterial membranes as the source of PBPs; endogenous in cells; host or cells: E. coli MC4100 membrane preparation
Protocol: as §3, §4, §5

PBP2 [2] = target: T2, PBP2 (Escherichia coli, UniProt P0AD65); experiment: as above; set-up: species or system E. coli MC4100
T2 construct: using bacterial membranes as the source of PBPs; endogenous in cells; host or cells: E. coli MC4100 membrane preparation
Protocol: as §3, §4, §5

PBP4 = target: T3, PBP4 (Escherichia coli, UniProt P24228); experiment: as above; set-up: species or system E. coli MC4100
T3 construct: using bacterial membranes as the source of PBPs; endogenous in cells; host or cells: E. coli MC4100 membrane preparation
Protocol: as §3, §4, §5

PBP1a/1b = experiment: as above; set-up: species or system E. coli MC4100; settings: E. coli MC4100 membranes, 12.5 μM Bocillin FL
Protocol: as §3, §4, §5

P. aeruginosa ATCC 27853 = experiment: MIC, broth microdilution (CLSI); format: cell-based, Pseudomonas aeruginosa; settings: for MIC in combination with PAβN: + 25 µg/mL PAβN
Protocol: as §1, §2

[3] = ATCC25922, ID-MHBCA + 0.1 µg/mL supplemental iron
[4] = ATCC25922, iron-deprived ID-MHBCA (−), 0 µg/mL supplemental iron
[5] = ID-MHBCA (−), 0 µg/mL supplemental iron, read-out: MIC
[6] = Pseudomonas aeruginosa, ATCC27853, ID-MHBCA (−), 0 µg/mL supplemental iron, read-out: MIC
[7] = Pseudomonas aeruginosa, ATCC27853, ID-MHBCA + 1 µg/mL supplemental iron, read-out: MIC
[8] = Pseudomonas aeruginosa, ATCC27853, ID-MHBCA, + 200 μg/mL APB, read-out: MIC with β-lactamase inhibitor (βI)
[9] = Pseudomonas aeruginosa, ATCC27853, MHBCA (+), no inhibitor, read-out: MIC
[10] = Pseudomonas aeruginosa, ATCC27853, MHBCA, + 200 μg/mL 3-aminophenylboronic acid (APB), read-out: MIC with β-lactamase inhibitor (βI)

| SMILES | MIC (E. coli ATCC 25922; [3]) [µM] | MIC (E. coli ATCC 25922; ATCC25922, MHBCA (+)) [µM] | MIC (E. coli ATCC 25922; [4]) [µM] | MIC ratio 0/1 (E. coli ATCC 25922; ID-MHBCA) | MIC ratio 1/0 (E. coli ATCC 25922; ID-MHBCA) | MIC (E. coli ΔacrAB) [µM] | MIC (E. coli Δfiu; Escherichia coli, ID-MHBCA) [µM] | MIC (E. coli Δfiu; Escherichia coli, MHBCA) [µM] | MIC (E. coli ΔcirA; ID-MHBCA) [µM] | MIC (E. coli ΔcirA; MHBCA) [µM] | MIC (E. coli ΔfhuA; Escherichia coli, ID-MHBCA) [µM] | MIC (E. coli ΔfhuA; Escherichia coli, MHBCA) [µM] | IC50 (PBP1a/1b) [µM] | MIC (P. aeruginosa ATCC 27853; [5]) [µM] | MIC in combination with PAβN (P. aeruginosa ATCC 27853; MHBCA) [µM] | MIC (P. aeruginosa ATCC 27853; [6]) [µM] | MIC (P. aeruginosa ATCC 27853; [7]) [µM] | MIC (P. aeruginosa ATCC 27853; [8]) [µM] | MIC (P. aeruginosa ATCC 27853; [9]) [µM] | MIC (P. aeruginosa ATCC 27853; [10]) [µM] | also measured |
| --- | --- | --- | --- | --- | --- | --- | --- | --- | --- | --- | --- | --- | --- | --- | --- | --- | --- | --- | --- | --- | --- |
| N[C@@H](C(=O)N[C@@H]1C(=O)N2C(C(=O)O)=C(Cl)CS[C@H]12)c1ccccc1 [CEF, cefaclor, reference compound] | 3.1 | 3.1 (≈ 1.14 µg/mL) | 3.1 (≈ 1.14 µg/mL) | 1 | 1 | 6.3 (≈ 2.32 µg/mL) | 13 (≈ 4.78 µg/mL) | 13 (≈ 4.78 µg/mL) | 25 (≈ 9.2 µg/mL) | 13 (≈ 4.78 µg/mL) | 13 (≈ 4.78 µg/mL) | 13 (≈ 4.78 µg/mL) | 34 ± 2 | >200 | > 200 | > 200 | > 200 | > 200 | > 200 | > 200 | IC50 (PBP2 [1]): > 50 µM; IC50 (PBP3): 15.4 ± 0.9 µM; IC50 (PBP2 [2]): > 50 µM; IC50 (PBP4): 40.2 ± 8.6 µM; MIC (P. aeruginosa ATCC 27853; MHBCA (+), no inhibitor, read-out: MIC): >200 µM |
| O=C(CN(CCCCNC(=O)c1cccc(O)c1O)C(=O)c1cccc(O)c1O)NC(C(=O)NC1C(=O)N2C(C(=O)O)=C(Cl)CCC12)c1ccccc1 (stereo not shown) [BLOR, bis-catechol (azotochelin)-loracarbef] | 0.05 | 0.024 (≈ 0.018 µg/mL) | 0.012 (≈ 0.009 µg/mL) | 8 | 8 | 0.012 (≈ 0.009 µg/mL) | 0.024 (≈ 0.018 µg/mL) | 0.1 to 0.4 (≈ 0.075 to 0.3 µg/mL) | 0.2 (≈ 0.15 µg/mL) | 13 (≈ 9.75 µg/mL) | 0.024 (≈ 0.018 µg/mL) | 0.1 to 0.4 (≈ 0.075 to 0.3 µg/mL) | 0.55 ± 0.02 | >200 | > 200 | > 200 | > 200 | 0.8 | 13 (≈ 9.75 µg/mL) | 6.3 | MIC (E. coli ATCC 25922; ATCC25922, ID-MHBCA + 1 µg/mL supplemental iron): 0.1 µM; MIC ratio unconjugated β-lactam/conjugate (E. coli ATCC 25922; ID-MHBCA): 128; MIC ratio unconjugated β-lactam/conjugate (AMP/BAMP, LOR/BLOR, CEF/MCEF) (E. coli ATCC 25922; MHBCA): 128; IC50 (PBP2 [1]; K. pneumoniae ATCC 13883 membranes, read-out: IC50 PBP2): 33.9 ± 5.6 µM; MIC (E. coli Δfiu; MHBCA): 0.1 µM (≈ 0.075 µg/mL); MIC (E. coli ΔfhuA; MHBCA): 0.2 µM (≈ 0.15 µg/mL); IC50 value ratio βL/SID-βL, PBP3 (PBP3; E. coli MC4100): 199; IC50 (PBP3; E. coli MC4100 membranes, read-out: IC50 PBP3): 0.075 ± 0.011 µM; IC50 (PBP2 [2]; E. coli MC4100 membranes, read-out: IC50 PBP2): > 50 µM; IC50 (PBP4; E. coli MC4100 membranes, read-out: IC50 PBP4): 8.3 ± 0.5 µM; MIC ratio unconjugated β-lactam/conjugate (P. aeruginosa ATCC 27853; ID-MHBCA): No activity; MIC ratio unconjugated β-lactam/conjugate (P. aeruginosa ATCC 27853; MHBCA): >16; MIC (P. aeruginosa ATCC 27853; Pseudomonas aeruginosa, ATCC27853, ID-MHBCA + 0.1 µg/mL supplemental iron, read-out: MIC): > 200 µM |

Source: PMC12592502, “Unraveling the mechanisms behind the enhanced efficacy of β-lactam-based sideromycins” (Communications Biology, 2025)
